How the values were obtained:
Experiment in all cases: drug sensitivity score (DSS), CellTiter-Blue viability (DSS (AUC-based score)); higher = stronger viability inhibition; extreme values may be limits of the assay
Conditions in all cases: incubation time: 72 h
CAL-51 = tested on: CAL-51
Outline: (§1)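 The drug sensitivity score was derived from the area under a fitted dose-response curve. To obtain the curves, breast cancer cells (20 µl suspension) were plated into 384-well plates with compound at 5 or 9 concentrations and kept for 72 h. Viability was measured by CellTiter-Blue fluorescence at 560/590 nm, with each plate normalised to 0.1 % DMSO and a positive kill control.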

MDA-MB-436 = tested on: MDA-MB-436
Outline: as §1

MFM-223 = tested on: MFM-223
Outline: as §1

MDA-MB-468 = tested on: MDA-MB-468
Outline: as §1

BT-549 = tested on: BT-549
Outline: as §1

HDQ-P1 = tested on: HDQ-P1
Outline: as §1

CAL-148 = tested on: CAL-148
Outline: as §1

MDA-MB-231 = tested on: MDA-MB-231
Outline: as §1

CAL-85-1 = tested on: CAL-85-1
Outline: as §1

HCC1937 = tested on: HCC1937
Outline: as §1

HCC1599 = tested on: HCC1599
Outline: as §1

HCC1143 = tested on: HCC1143
Outline: as §1

DU-4475 = tested on: DU-4475
Outline: as §1

Hs578T = tested on: Hs578T
Outline: as §1

MDA-MB-453 = tested on: MDA-MB-453
Outline: as §1

BT-474 = tested on: BT-474
Outline: as §1

Row | Compound | drug sensitivity score (CAL-51) | drug sensitivity score (MDA-MB-436) | drug sensitivity score (MFM-223) | drug sensitivity score (MDA-MB-468) | drug sensitivity score (BT-549) | drug sensitivity score (HDQ-P1) | drug sensitivity score (CAL-148) | drug sensitivity score (MDA-MB-231) | drug sensitivity score (CAL-85-1) | drug sensitivity score (HCC1937) | drug sensitivity score (HCC1599) | drug sensitivity score (HCC1143) | drug sensitivity score (DU-4475) | drug sensitivity score (Hs578T) | drug sensitivity score (MDA-MB-453) | drug sensitivity score (BT-474)
1 | Cc1c(CN2CCN(C(=O)[C@H](C)O)CC2)sc2c(N3CCOCC3)nc(-c3cnc(N)nc3)nc12 [GDC-0980] | 18.9 | 10.4 | 19.2 | 12.3 | 14.7 | 19.2 | 17.2 | 18.5 | 14.8 | 14.1 | 15.1 | 15.9 | 12.6 | 15.4 | 22.8 | 15.6
2 | Nc1cccc2c1CN(C1CCC(=O)NC1=O)C2=O (stereo unspecified) [Lenalidomide] | 0 | 0 | 0 | 0 | 0 | 0 | 0 | 0 | 0 | 0 | 0 | 0 | 0 | 0 | 0 | 0
3 | C[C@]12O[C@H](C[C@]1(O)CO)n1c3ccccc3c3c4c(c5c6ccccc6n2c5c31)CNC4=O [Lestaurtinib] | 2.4 | 3.43 | 5.87 | 0 | 1.24 | 0 | 0 | 0 | 3.82 | 7.15 | 2.58 | 3.46 | 8.26 | 0 | 6.19 | 0
4 | O=C1c2c(O)ccc(O)c2C(=O)c2c(NCCNCCO)ccc(NCCNCCO)c21 [Mitoxantrone] | 17.6 | 3.16 | 2.58 | 9.75 | 4.76 | 8.81 | 17.4 | 11.8 | 5.25 | 23.1 | 4.36 | 6.5 | 22.7 | 4.05 | 4.9 | 6.48
5 | Nc1ccccc1NC(=O)c1ccc(CNc2nccc(-c3cccnc3)n2)cc1 [Mocetinostat] | 5.94 | 9.06 | 3.47 | 7.64 | 7.6 | 2.86 | 8.31 | 6.93 | 8.63 | 7.41 | 10.1 | 6.77 | 12.9 | 6.43 | 12.8 | 2.91
6 | COc1nc(N)nc2c1ncn2[C@@H]1O[C@H](CO)[C@@H](O)[C@@H]1O [Nelarabine] | 0 | 0 | 0 | 0 | 0 | 0 | 0 | 0 | 0 | 0 | 0 | 0 | 0 | 0 | 0 | 0
7 | Cc1ccc(Nc2nccc(N(C)c3ccc4c(C)n(C)nc4c3)n2)cc1S(N)(=O)=O [Pazopanib] | 0 | 4.09 | 11.6 | 0 | 3.13 | 1.38 | 0 | 0 | 0 | 0 | 0 | 0 | 0 | 0 | 6.67 | 0
8 | O=C(CCBr)N1CCN(C(=O)CCBr)CC1 [Pipobroman] | 0 | 0 | 3.19 | 0 | 0 | 0 | 0 | 0 | 0 | 0 | 0 | 0 | 0 | 0 | 2.49 | 0
9 | c1cc(CN2CCCNCCNCCCNCC2)ccc1CN1CCCNCCNCCCNCC1 [Plerixafor] | 0 | 0 | 0 | 0 | 0 | 0 | 0 | 0 | 0 | 0 | 0 | 0 | 0 | 0 | 0 | 0
10 | C[C@]12C=CC(=O)C=C1CC[C@@H]1[C@@H]2[C@@H](O)C[C@@]2(C)[C@H]1CC[C@]2(O)C(=O)CO [Prednisolone] | 0 | 0 | 0 | 0 | 0 | 0 | 0 | 0 | 0 | 0 | 0 | 0 | 0 | 0 | 4.2 | 0
11 | CC[C@@]1(O)C(=O)OCc2c1cc1n(c2=O)Cc2cc3c(CN(C)C)c(O)ccc3nc2-1 [Topotecan] | 5.2 | 6.23 | 0 | 11.6 | 4.7 | 0.903 | 11.5 | 3.58 | 3.4 | 13.2 | 3.96 | 5.56 | 11.1 | 0 | 3.26 | 0
